Laboratory results taken from PubChem BioAssay AID330 (DTP/NCI, 2004).
Values joined by “and” are separate entries in the source; they are usually repeats but may differ in a detail not shown here. Identical values can stand only once. Toxic doses and inconclusive results are not listed. The calls were made as follows: active = survival T/C of 150% or more; inactive = T/C below 125% in these data.

Tested on: P388 leukemia ip, CD2F1 mice, survival T/C
Experiment: NCI In Vivo Anticancer Drug Screen. Data for tumor model P388 Leukemia (intraperitoneal) in CD2F1 (CDF1) mice
Settings: endpoint: median survival time, higher = longer survival
In short: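 Mice carrying the transplanted tumor received test compound or vehicle. Survival was recorded in each group, and the value is the treated-group measurement divided by that of the vehicle-treated control group.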

[1] = dose: 60.0 mg/kg/injection, schedule: Q01DX005 (ip), vehicle: Klucel (hydroxypropylcellulose) (HPC)
[2] = dose: 120.0 mg/kg/injection, schedule: Q01DX005 (ip), vehicle: Klucel (hydroxypropylcellulose) (HPC)
[3] = dose: 240.0 mg/kg/injection, schedule: Q01DX005 (ip), vehicle: Klucel (hydroxypropylcellulose) (HPC)
[4] = dose: 50.0 mg/kg/injection, schedule: Q01DX009 (ip), vehicle: Klucel (hydroxypropylcellulose) (HPC)
[5] = dose: 100.0 mg/kg/injection, schedule: Q01DX009 (ip), vehicle: Klucel (hydroxypropylcellulose) (HPC)
[6] = dose: 200.0 mg/kg/injection, schedule: Q01DX009 (ip), vehicle: Klucel (hydroxypropylcellulose) (HPC)
[7] = dose: 100.0 mg/kg/injection, schedule: Q01DX001 (ip), vehicle: saline with Tween-80
[8] = dose: 200.0 mg/kg/injection, schedule: Q01DX001 (ip), vehicle: saline with Tween-80
[9] = dose: 400.0 mg/kg/injection, schedule: Q01DX001 (ip), vehicle: saline with Tween-80
[10] = dose: 50.0 mg/kg/injection, schedule: Q01DX005 (ip), vehicle: Klucel (hydroxypropylcellulose) (HPC)
[11] = dose: 100.0 mg/kg/injection, schedule: Q01DX005 (ip), vehicle: Klucel (hydroxypropylcellulose) (HPC)
[12] = dose: 200.0 mg/kg/injection, schedule: Q01DX005 (ip), vehicle: Klucel (hydroxypropylcellulose) (HPC)
[13] = dose: 15.0 mg/kg/injection, schedule: Q01DX005 (ip), vehicle: saline with Tween-80
[14] = dose: 30.0 mg/kg/injection, schedule: Q01DX005 (ip), vehicle: saline with Tween-80
[15] = dose: 60.0 mg/kg/injection, schedule: Q01DX005 (ip), vehicle: saline with Tween-80
[16] = dose: 50.0 mg/kg/injection, schedule: Q01DX009 (ip), vehicle: saline with Tween-80
[17] = dose: 100.0 mg/kg/injection, schedule: Q01DX009 (ip), vehicle: saline with Tween-80

Measured: T/C

N#CCCN1C(=O)C2(CCC#N)CCCCC2(O)N=C1c1ccccc1 (configuration not stated)
inactive: [1] 92 % of control | [2] 94 % of control | [3] 92 % of control

Cn1cnc2n[nH]nc2c1=O
inactive: [4] 105 % of control | [5] 95 % of control | [6] 100 % of control

COc1ccc2nc(NC(=O)Nc3ccc(Cc4ccc(NC(=O)Nc5nc6ccc(OC)cc6s5)cc4)cc3)sc2c1
inactive: [4] 100 % of control | [5] 94 % of control | [6] 99 % of control

Clc1nc(Cl)c2c3c(sc2n1)CCCC3
inactive: [1] 91 % of control | [2] 90 % of control | [3] 99 % of control

Cc1nn(C(=S)S)c(C)c1N=Nc1cccc(Cl)c1Cl
inactive: [7] 91 % of control | [8] 94 % of control | [9] 108 % of control

Cn1c2c(c(=O)c3cc(O)ccc31)CC(C(C)(C)O)O2 (configuration not stated)
inactive: [10] 104 % of control | [11] 105 % of control | [12] 104 % of control

CCCN(C)C12CN3CN(CN(C3)C1)C2
inactive: dose: 100.0 mg/kg/injection, schedule: Q04DX003 (ip), vehicle: saline 106 % of control | dose: 200.0 mg/kg/injection, schedule: Q04DX003 (ip), vehicle: saline 95 % of control | dose: 400.0 mg/kg/injection, schedule: Q04DX003 (ip), vehicle: saline 100 % of control

C[n+]1ccc(Nc2ccc(NC(=O)c3ccc(Nc4cc[n+](C)c5ccc([N+](=O)[O-])cc45)cc3)cc2)cc1
inactive: dose: 64.0 mg/kg/injection, schedule: Q01DX009 (ip), vehicle: saline 121 % of control
active: dose: 2.0 mg/kg/injection, schedule: Q01DX009 (ip), vehicle: saline 164 % of control | dose: 4.0 mg/kg/injection, schedule: Q01DX009 (ip), vehicle: saline 158 % of control and 178 % of control | dose: 8.0 mg/kg/injection, schedule: Q01DX009 (ip), vehicle: saline 177 % of control and 195 % of control | dose: 16.0 mg/kg/injection, schedule: Q01DX009 (ip), vehicle: saline 226 % of control and 257 % of control | dose: 32.0 mg/kg/injection, schedule: Q01DX009 (ip), vehicle: saline 281 % of control and 288 % of control

CCn1cc(C(=O)O)c(=O)c2ccc(C)[n+](C)c21
inactive: dose: 100.0 mg/kg/injection, schedule: Q04DX002 (ip), vehicle: saline 99 % of control | dose: 200.0 mg/kg/injection, schedule: Q04DX002 (ip), vehicle: saline 100 % of control | dose: 400.0 mg/kg/injection, schedule: Q04DX002 (ip), vehicle: saline 98 % of control

CC1(C)CCNc2ccccc2S1
inactive: [7] 103 % of control | [8] 103 % of control | [9] 100 % of control

COc1c(OCC(O)CN2CCCCC2)c2c(C)coc2c2ccoc12 (configuration not stated)
inactive: [10] 100 % of control | [11] 96 % of control

OC(c1ccccc1I1OC(C(F)(F)F)(C(F)(F)F)c2ccccc21)(C(F)(F)F)C(F)(F)F (tested in a mixture with another compound)
inactive: dose: 1.56 mg/kg/injection, schedule: Q01DX005 (ip), vehicle: Klucel (hydroxypropylcellulose) (HPC) 99 % of control | dose: 3.12 mg/kg/injection, schedule: Q01DX005 (ip), vehicle: Klucel (hydroxypropylcellulose) (HPC) 93 % of control | dose: 6.25 mg/kg/injection, schedule: Q01DX005 (ip), vehicle: Klucel (hydroxypropylcellulose) (HPC) 98 % of control

N#Cc1c(-c2ccc(Cl)cc2)c(-c2ccc(Cl)cc2)nn(CCOC(=O)CN)c1=O
active: dose: 50.0 mg/kg/injection, schedule: Q01DX005 (ip), vehicle: distilled water + Tween-80 155 % of control
inactive: dose: 3.13 mg/kg/injection, schedule: Q01DX005 (ip), vehicle: distilled water + Tween-80 99 % of control and 100 % of control | dose: 6.25 mg/kg/injection, schedule: Q01DX005 (ip), vehicle: distilled water + Tween-80 100 % of control and 103 % of control | dose: 12.5 mg/kg/injection, schedule: Q01DX005 (ip), vehicle: distilled water + Tween-80 105 % of control and 115 % of control and 97 % of control | dose: 12.5 mg/kg/injection, schedule: Q04DX002 (ip), vehicle: distilled water + Tween-80 103 % of control | dose: 25.0 mg/kg/injection, schedule: Q01DX005 (ip), vehicle: distilled water + Tween-80 108 % of control and 120 % of control (2×) | dose: 25.0 mg/kg/injection, schedule: Q04DX002 (ip), vehicle: distilled water + Tween-80 111 % of control and 112 % of control | dose: 50.0 mg/kg/injection, schedule: Q01DX005 (ip), vehicle: saline 116 % of control

OCC1OC(n2cnc3c(I)ncnc32)C(O)C1O (configuration not stated)
inactive: dose: 50.0 mg/kg/injection, schedule: Q01DX005 (ip), vehicle: saline with Tween-80 100 % of control | dose: 100.0 mg/kg/injection, schedule: Q01DX005 (ip), vehicle: saline with Tween-80 103 % of control | dose: 200.0 mg/kg/injection, schedule: Q01DX005 (ip), vehicle: saline with Tween-80 101 % of control

Cc1ccc2c(c1)nc(C)c(=O)n2CC1CCCN2CCCC[C@H]12 (some centres not stated)
inactive: [13] 97 % of control | [14] 97 % of control | [15] 97 % of control

CNc1c(C(N)=O)nnn1Cc1ccc(OC)cc1
inactive: dose: 100.0 mg/kg/injection, schedule: Q04DX002 (ip), vehicle: Klucel (hydroxypropylcellulose) (HPC) 100 % of control | dose: 200.0 mg/kg/injection, schedule: Q04DX002 (ip), vehicle: Klucel (hydroxypropylcellulose) (HPC) 100 % of control | dose: 400.0 mg/kg/injection, schedule: Q04DX002 (ip), vehicle: Klucel (hydroxypropylcellulose) (HPC) 103 % of control

CN1C(=O)C(=CN(C)c2ccccc2)C(=O)N(C)C1=O
inactive: dose: 25.0 mg/kg/injection, schedule: Q04DX003 (ip), vehicle: saline with Tween-80 111 % of control | dose: 50.0 mg/kg/injection, schedule: Q04DX003 (ip), vehicle: saline with Tween-80 112 % of control | dose: 100.0 mg/kg/injection, schedule: Q04DX003 (ip), vehicle: saline with Tween-80 114 % of control and 96 % of control

c1ccc(CSCCSCc2ccccn2)nc1
inactive: [10] 95 % of control | [11] 109 % of control | [12] 103 % of control

CC1=CC(C)(C(Cl)(Cl)Cl)C(C)=CC1=O (configuration not stated)
inactive: [10] 98 % of control | [11] 99 % of control | [12] 101 % of control

CCOC(=O)C1OC1(C)c1ccccc1 (configuration not stated)
inactive: [16] 102 % of control | [17] 100 % of control | dose: 200.0 mg/kg/injection, schedule: Q01DX009 (ip), vehicle: saline with Tween-80 107 % of control

O=C1OC(OC2OC(=O)C(Cl)=C2Cl)C(Cl)=C1Cl (configuration not stated)
inactive: dose: 12.5 mg/kg/injection, schedule: Q01DX005 (ip), vehicle: saline with Tween-80 104 % of control and 109 % of control | dose: 25.0 mg/kg/injection, schedule: Q01DX005 (ip), vehicle: saline with Tween-80 116 % of control and 117 % of control

CCn1c(Cl)c(/C=N\Nc2cccc([N+](=O)[O-])c2)c2ccccc21
inactive: dose: 25.0 mg/kg/injection, schedule: Q01DX001 (ip), vehicle: Klucel (hydroxypropylcellulose) (HPC) 93 % of control | dose: 50.0 mg/kg/injection, schedule: Q01DX001 (ip), vehicle: Klucel (hydroxypropylcellulose) (HPC) 87 % of control | dose: 100.0 mg/kg/injection, schedule: Q01DX001 (ip), vehicle: Klucel (hydroxypropylcellulose) (HPC) 86 % of control and 93 % of control

CC(=O)Nc1nc(NC(C)=O)c(N=O)c(NC(C)=O)n1
inactive: dose: 25.0 mg/kg/injection, schedule: Q01DX009 (ip), vehicle: saline with Tween-80 103 % of control | dose: 25.0 mg/kg/injection, schedule: Q01DX009 (ip), vehicle: saline 108 % of control | [16] 103 % of control | dose: 50.0 mg/kg/injection, schedule: Q01DX009 (ip), vehicle: saline 108 % of control and 120 % of control | [17] 94 % of control | dose: 100.0 mg/kg/injection, schedule: Q01DX009 (ip), vehicle: saline 112 % of control

Nc1nc(N)c2nc(-c3ccc([N+](=O)[O-])cc3)c(Cl)nc2n1
inactive: [13] 98 % of control | [14] 98 % of control | [15] 95 % of control and 98 % of control | dose: 120.0 mg/kg/injection, schedule: Q01DX005 (ip), vehicle: saline with Tween-80 92 % of control
